This note sets out measurements from patent publication US12637478B2, “Compound, preparation method thereof, and antibiotic composition comprising same” (priority 2020, dated 2026).

The test system of assay [1] is E. faecium^LinR. Kind of assay: MIC by broth microdilution (aerobic pathogens), test strain 12. The assay is classed as cell-based, Linezolid resistant Enterococcus faecium. Particulars: Enterococcus faecium; test strain 12, E. faecium^LinR (linezolid resistant); read-out: MIC. As to the method: (§1) The antibacterial activity of the compounds of Examples 1 to 48 of the present invention against aerobic pathogens were evaluated by measuring the minimum concentration of the antibiotic capable of inhibiting bacterial growth by 90% compared to the growth of the non-drug treated control group. MIC was measured by the broth microdilution method based on CLSI standards [Reference: Clinical and Laboratory Standards Institute Document. (2000) Methods for Dilution Antimicrobial Susceptibility Test for Bacteria that Grow Aerobically-Fifth Edition: M7-A5. CLSI, Villanova, PA].
(§2) All 13 strains such as methicillin susceptible Staphylococcus aureus (MSSA), methicillin resistant Staphylococcus aureus (MRSA), Vancomycin resistant Staphylococcus aureus (VRSA), Staphylococcus epidermidis, methicillin resistant Staphylococcus epidermidis, Enterococcus faecalis, Vancomycin resistant Enterococcus faecalis, Enterococcus faecium, Vancomycin resistant Enterococcus faecium were used.

Assay [2] has as its system S. aureus^MS. Briefly: MIC by broth microdilution (aerobic pathogens), test strain 1. The format is cell-based. Particulars: Staphylococcus aureus; test strain 1, S. aureus^MS; read-out: MIC. As for the experimental part:
as §1, §2

Assay [3] concerns S. epidermis^MR. Briefly: MIC by broth microdilution (aerobic pathogens), test strain 6. The assay is classed as cell-based, Methicillin resistant Staphylococcus epidermidis. Particulars: Staphylococcus epidermidis; test strain 6, S. epidermis^MR (methicillin resistant); read-out: MIC. As for the experimental part: as §1, §2
A general note: Dilution methods test growth across graded concentrations, often in twofold steps.

Assay [4] concerns E. faecalis^VanA. Kind of assay: MIC by broth microdilution (aerobic pathogens), test strain 8. The format is cell-based, Vancomycin resistant Enterococcus faecalis. Particulars: Enterococcus faecalis; test strain 8, E. faecalis^VanA (vancomycin resistant); read-out: MIC. As for the experimental part:
as §1, §2

The test system of assay [5] is S. aureus^VR. Kind of assay: MIC by broth microdilution (aerobic pathogens), test strain 4. The format is cell-based, Vancomycin resistant Staphylococcus aureus. Particulars: Staphylococcus aureus; test strain 4, S. aureus^VR (vancomycin resistant); read-out: MIC. As for the experimental part:
as §1, §2

Assay [6] concerns S. aureus^MS. Briefly: MIC by broth microdilution (aerobic pathogens), test strain 2. The assay is classed as cell-based. Particulars: Staphylococcus aureus; test strain 2, S. aureus^MS; read-out: MIC. As for the experimental part:
as §1, §2

Assay [7] has as its system E. faecium^VRE. Kind of assay: MIC by broth microdilution (aerobic pathogens), test strain 11. Particulars: Enterococcus faecium; test strain 11, E. faecium^VRE (vancomycin resistant); read-out: MIC. The format is cell-based, Vancomycin resistant Enterococcus faecium. As for the experimental part: as §1, §2
In assay [8] the test system is E. faecium. Briefly: MIC by broth microdilution (aerobic pathogens), test strain 10. The format is cell-based. Particulars: Enterococcus faecium; test strain 10, E. faecium; read-out: MIC. As to the method: as §1, §2
Assay [9] concerns S. epidermis. Kind of assay: MIC by broth microdilution (aerobic pathogens), test strain 5. The assay is classed as cell-based. Particulars: Staphylococcus epidermidis; test strain 5, S. epidermis; read-out: MIC. As for the experimental part: as §1, §2
For assay [10], the system named is C. difficile 9689. Kind of assay: MIC by agar dilution against Clostridioides difficile, test strain 13. Particulars: test strain 13, C. difficile 9689, anaerobic, agar dilution, read-out: MIC. The format is cell-based. Background: In agar dilution, organisms are placed on agar that contains the substance at set levels.
Assay [11] has as its system C. difficile 159. Kind of assay: MIC by agar dilution against Clostridioides difficile, test strain 15. The format is cell-based. Particulars: test strain 15, C. difficile 159, anaerobic, agar dilution, read-out: MIC.
Assay [12] relates to C. difficile 152. Kind of assay: MIC by agar dilution against Clostridioides difficile, test strain 14. The format is cell-based. Particulars: test strain 14, C. difficile 152, anaerobic, agar dilution, read-out: MIC.
In assay [13] the test system is C. difficile 173. Kind of assay: MIC by agar dilution against Clostridioides difficile, test strain 17. The format is cell-based. Particulars: test strain 17, C. difficile 173, anaerobic, agar dilution, read-out: MIC.
The test system of assay [14] is C. difficile 181. Kind of assay: MIC by agar dilution against Clostridioides difficile, test strain 19. The assay is classed as cell-based. Particulars: test strain 19, C. difficile 181, anaerobic, agar dilution, read-out: MIC.
Assay [15] has as its system C. difficile 174. Kind of assay: MIC by agar dilution against Clostridioides difficile, test strain 18. The format is cell-based. Particulars: test strain 18, C. difficile 174, anaerobic, agar dilution, read-out: MIC.
The test system of assay [16] is C. difficile 161. Briefly: MIC by agar dilution against Clostridioides difficile, test strain 16. Particulars: test strain 16, C. difficile 161, anaerobic, agar dilution, read-out: MIC. The format is cell-based.

In brackets after ≈: the same amount, converted by molar mass.

`C/C=C1\NC(=O)[C@H]([C@@H](C)O)NC(=O)c2csc(n2)-c2ccc(-c3nc(-c4nc(C(=O)NC5(C(=O)NCCn6cnc([N+](=O)[O-])n6)CC5)cs4)cs3)nc2-c2csc(n2)[C@H]([C@@H](C)O)NC(=O)c2csc(n2)[C@H](C(C)C)NC(=O)c2csc1n2` [Compound 38]: the MIC in assay [1], in [2], in [3], in assay [4], in assay [5] and in [6] was 1 µg/mL (≈ 0.815 µM) throughout. For the same compound, the minimum inhibitory concentration (MIC) (commonly the lowest concentration found to suppress growth) was determined as 1 µg/mL (≈ 0.815 µM) in assay [7], 0.5 µg/mL (≈ 0.408 µM) in assay [8] and 1 µg/mL (≈ 0.815 µM) in assay [9].
In the case of `C/C=C1\NC(=O)[C@H]([C@@H](C)O)NC(=O)c2csc(n2)-c2ccc(-c3nc(-c4nc(C(=O)NC5(C(=O)NCCn6ccnc6[N+](=O)[O-])CC5)cs4)cs3)nc2-c2csc(n2)[C@H]([C@@H](C)O)NC(=O)c2csc(n2)[C@H](C(C)C)NC(=O)c2csc1n2` [Compound 39], the MIC stood at 0.25 µg/mL (≈ 0.204 µM) in assay [10]; 1 µg/mL (≈ 0.816 µM) in [11]; 0.25 µg/mL (≈ 0.204 µM) in [12]; 0.5 µg/mL (≈ 0.408 µM) in assay [13]; 0.5 µg/mL (≈ 0.408 µM) in [14]; 1 µg/mL (≈ 0.816 µM) in assay [15]. In assay [16], the MIC is 0.25 µg/mL (≈ 0.204 µM).
`C/C=C(\NC(=O)c1csc(-c2csc(-c3ccc4c(n3)-c3csc(n3)[C@H]([C@@H](C)O)NC(=O)c3csc(n3)[C@H](C(C)C)NC(=O)c3csc(n3)/C(=C/C)NC(=O)[C@H]([C@@H](C)O)NC(=O)c3csc-4n3)n2)n1)C(=O)NCCn1cc([N+](=O)[O-])nc1C` [Compound 41]: the MIC in [10] was determined as 0.5 µg/mL (≈ 0.403 µM); in assay [11], 0.5 µg/mL (≈ 0.403 µM); in assay [12], 0.25 µg/mL (≈ 0.202 µM); in [13], 0.5 µg/mL (≈ 0.403 µM); in [14] it was 1 µg/mL (≈ 0.807 µM); in assay [15] it was 0.25 µg/mL (≈ 0.202 µM). Further, the MIC in assay [16] stood at 0.25 µg/mL (≈ 0.202 µM).
With `C/C=C(\NC(=O)c1csc(-c2csc(-c3ccc4c(n3)-c3csc(n3)[C@H]([C@@H](C)O)NC(=O)c3csc(n3)[C@H](C(C)C)NC(=O)c3csc(n3)/C(=C/C)NC(=O)[C@H]([C@@H](C)O)NC(=O)c3csc-4n3)n2)n1)C(=O)NCCn1ccnc1[N+](=O)[O-]` [Compound 43], the MIC worked out at 0.5 µg/mL (≈ 0.408 µM) in assay [10]; 0.5 µg/mL (≈ 0.408 µM) in assay [11]; 0.5 µg/mL (≈ 0.408 µM) in [12]; 1 µg/mL (≈ 0.816 µM) in [13]; 0.5 µg/mL (≈ 0.408 µM) in assay [14]; 0.5 µg/mL (≈ 0.408 µM) in assay [15]. Further, the MIC in assay [16] came out at 0.5 µg/mL (≈ 0.408 µM).
Take `C/C=C1\NC(=O)[C@H]([C@@H](C)O)NC(=O)c2csc(n2)-c2ccc(-c3nc(-c4nc(C(=O)NC5(C(=O)NCCn6cc([N+](=O)[O-])nc6C)CC5)cs4)cs3)nc2-c2csc(n2)[C@H]([C@@H](C)O)NC(=O)c2csc(n2)[C@H](C(C)C)NC(=O)c2csc1n2` [Compound 45]: the MIC in [10] was 0.5 µg/mL (≈ 0.403 µM); in assay [11], 0.5 µg/mL (≈ 0.403 µM); in assay [12], 0.5 µg/mL (≈ 0.403 µM); in assay [13] it was 1 µg/mL (≈ 0.807 µM); in [14] it was 1 µg/mL (≈ 0.807 µM); in assay [15] it was 0.5 µg/mL (≈ 0.403 µM). Also, in assay [16], the minimal inhibitory concentration (MIC) turned out to be 0.5 µg/mL (≈ 0.403 µM).
